Measured values as given in US20190015335A1, “HEPATOPROTECTIVE PARTICLES AND SYSTEMS AND METHODS OF USE THEREOF” (South Dakota Board of Regents, priority 2017, published 2019).

How the values were obtained:
[1] = test system: CYP1A1/CYP1B1 in AML12 cells; assay: CYP1A1/CYP1B1 activity in AML12 cells after doxorubicin; type: cell-based, mouse; details: FIG. 7
Procedure: (§1) MTT assay was performed to quantify AML12 cell survival after 24-hour exposure to 10 μM doxorubicin (DOX). The cells were pretreated with SFN or with MIL-88A-SFN. Control cells include those incubated with DOX without pretreatment, those incubated with MIL-88A-SFN alone without incubation with DOX, and those incubated with phosphate buffered saline (PBS). The activities of caspases and CYP1A1/CYP1B1 of these cells were also measured.

AML12 cells = assay: MTT assay of AML12 cell survival after doxorubicin; type: cell-based, mouse; details: FIG. 5
Procedure: as §1

[2] = test system: caspase 3/7 and caspase 9 in AML12 cells; assay: Caspase 3/7 and caspase 9 activity in AML12 cells after doxorubicin; type: cell-based, mouse; details: FIG. 6
Procedure: as §1

liver tissues = assay: Morphological microscopic analysis of liver tissues (DOX); type: in vivo, mice
Procedure: (§2) Mice bearing a B16F1 tumor were intravenously administered through the tail vein in different groups of eight: (1) pretreatment with 25 mg of MIL-88A-SFN per kg of mouse at day 0 (corresponding to 3 mg SFN per kg of mouse according to the loading capacity of SFN in MIL-88A), followed by DOX at day 1 at 10 mg per kg of mouse; (2) pretreatment with SFN at 3 mg per kg of mouse at day 0, followed by DOX at day 1 at 10 mg per kg of mouse; (3) PBS injected at day 0, followed by DOX at day 1 at 10 mg per kg of mouse; and (4) PBS injected at both day 0 and day 1. Liver and blood samples were collected and analyzed to identify liver damage and morphology.

[3] = test system: CYP1A1/CYP1B1 in liver tissues; assay: CYP1A1/CYP1B1 activity in liver tissues of mice bearing B16F1 tumor (DOX); type: in vivo
Procedure: as §2

[4] = test system: caspase 3/7 in liver tissues; assay: Caspase 3/7 activity in liver tissues of mice bearing B16F1 tumor (DOX); type: in vivo
Procedure: as §2

[5] = test system: alanine aminotransferase (ALT) activity in blood serum; assay: ALT activity in blood serum of mice bearing B16F1 tumor (DOX); type: in vivo
Procedure: as §2

B16F1 tumor = assay: Tumor volume in mice bearing B16F1 tumor, DOX with or without pretreatment; type: in vivo; details: DOX 10 mg per kg i.v. at day 1, with or without pretreatment, vs PBS only, FIG. 9
bilirubin in blood serum = assay: Bilirubin concentration in blood serum of mice bearing B16F1 tumor (DTIC); type: in vivo; details: DTIC 120 mg per kg, 4 cycles, FIG. 17
Procedure: (§3) Mice bearing B16F1 tumor were intravenously administered through the tail vein in different groups of eight: (1) pretreatment with PLGA-SBN (corresponding to 10 mg SBN per kg of mouse), followed by dacarbazine (DTIC) on the next day at a dose of 120 mg per kg mouse; (2) pretreatment with SBN (10 mg per kg), followed by DTIC on the next day at a dose of 120 mg per kg mouse; (3) PBS, followed by DTIC on the next day at a dose of 120 mg per kg mouse; (4) pretreatment with plain PLGA and free (non-encapsulated) SBN (10 mg per kg of mouse), followed by PBS on the next day; and (5) PBS injected at both days (once per day). Liver and blood samples were collected and analyzed to identify liver damage and morphology.

[6] = test system: alanine aminotransferase (ALT) activity in blood serum; assay: ALT activity in blood serum of mice bearing B16F1 tumor (DTIC); type: in vivo; details: DTIC 120 mg per kg, 4 cycles, FIG. 16
Procedure: as §3

[7] = test system: caspase 3 in liver tissues; assay: Western blot of pro-caspase 3 and active caspase 3 in liver tissues (DTIC); type: in vivo, mice; details: DTIC 120 mg per kg, 4 cycles, FIG. 18
Procedure: as §3

[8] = test system: GSTP1 and GSTA3 in B16F1 melanoma tumor tissues; assay: Western blot of GST expression in tumor tissues of mice bearing B16F1 tumor; type: in vivo; details: i.v., day 1 and day 2, FIG. 8B
Procedure: Mice bearing B16F1 tumor were intravenously administered with SFN or MIL-88A-SFN at a dose of 10 mg SFN per kg animal, through the tail vein in groups of eight. The expression levels of GSTP1 and GSTA3 in the liver and tumor tissues were measured by western blot at 24 and 48 h following the intravenous administration. Tissues from the groups of mice treated with PBS or MIL-88A were also analyzed.

[9] = test system: GSTP1, GSTA3 and NQO1 in AML12 cells; details: 10 μM SFN, FIG. 3
Procedure: To validate the protective effect of SFN on a mouse hepatocyte cell line AML12, the expression levels of two glutathione-S-transferase (GST) isoforms, P1 and A3 (denoted as GSTP1 and GSTA3, respectively) and NAD(P)H:quinone oxidoreductase (NQO1), were quantified using western blot analysis after incubating the AML12 cells with SFN for 12, 24, and 36 hours. Beta-actin was used as a loading control.

[10] = test system: GST activity in AML12 cells; assay: GST activity assay in AML12 cells; type: cell-based, mouse; details: 24 and 48 hours, 10 μM SFN, FIG. 4
Procedure: The effects of SFN (10 μM), MIL-88A MOF loaded with SFN (denoted as MIL-88A-SFN, 10 μM SFN final concentration), or a corresponding amount of unloaded MIL-88A MOF on the GST activity in AML12 cells were measured at 12, 24, or 48 hours after the treatment. The GST activity assay was performed in the presence of glutathione and 1-chloro-2,4-dinitrobenzene (a GST substrate). Measurements were performed in quadruplicate.

[11] = pretreatment then 10 μM DOX 24 h

COc1cccc2c1C(=O)c1c(O)c3c(c(O)c1C2=O)C[C@@](O)(C(=O)CO)C[C@@H]3O[C@H]1C[C@H](N)[C@H](O)[C@H](C)O1 [DOX, doxorubicin]
level of CYP1A1/CYP1B1 ([1]; 10 μM DOX 24 h): induced an increase | cell survival rate (AML12 cells; 10 μM DOX alone 24 h): lowest survival rate | caspase activity ([2]; 10 μM DOX alone 24 h): highest caspase activity | liver morphology (hepatotoxicity) (liver tissues; DOX 10 mg per kg i.v.): induced moderate cholestasis, focal necrosis, and mononuclear infiltration of sinusoids | CYP1A/CYP1B activity in the liver tissues ([3]; DOX 10 mg per kg i.v., FIG. 12): induced an upregulation | caspase activity in the liver tissues ([4]; DOX 10 mg per kg i.v., FIG. 11): induced an upregulation | ALT activity in blood serum ([5]; DOX 10 mg per kg i.v., FIG. 10): induced an upregulation | tumor volume (B16F1 tumor): lower tumor volumes up to at least 9 days

CN(C)/N=N/c1[nH]cnc1C(N)=O [DTIC, dacarbazine]
bilirubin concentration in blood serum (bilirubin in blood serum): induced an upregulation | ALT activity in blood serum [6]: induced an upregulation | caspase 3 activation in liver tissues [7]: induced caspase 3 activation

C[S+]([O-])CCCCN=C=S (stereo not shown) [SFN, sulforaphane]
DOX-induced upregulation of CYP1A1/CYP1B1 after pretreatment [1, 11]: suppressed the upregulation | GST expression in B16F1 melanoma tumor tissues [8]: neither SFN nor MIL-88A-SFN strongly affected | apoptosis / cell survival after pretreatment (AML12 cells; [11]): significantly decreased apoptosis | caspase activity after pretreatment [2, 11]: significantly decreased | expression of phase 2 enzymes GSTP1 and GSTA3 ([9]; 24 h, vs untreated cells): upregulation | expression of NQO1 [9]: enhanced expression | DOX-induced liver pathology after pretreatment (liver tissues; 3 mg SFN per kg day 0, DOX 10 mg per kg day 1): attenuated the aforementioned symptoms of hepatotoxicity | DOX-induced upregulation of liver CYP1A/CYP1B activity after pretreatment ([3]; 3 mg SFN per kg day 0, DOX 10 mg per kg day 1, FIG. 12): but not SFN, attenuated the upregulation | DOX-induced upregulation of liver caspase activity after pretreatment ([4]; 3 mg SFN per kg day 0, DOX 10 mg per kg day 1, FIG. 11): but not SFN, attenuated the upregulation | GST activity [10]: equaled the GST activity in the cells treated with SFN-loaded MIL-88A | DOX-induced upregulation of ALT activity after pretreatment ([5]; 3 mg SFN per kg day 0, DOX 10 mg per kg day 1, FIG. 10): attenuated the upregulation
